From patent publication US8796268B2, “Heteroaryls and uses thereof” (Millennium Pharmaceuticals, Inc., priority 2010, dated 2014)

Legend:
Format in all cases: biochemical
[1] = molecular target: T1, Human PI3K beta (Homo sapiens, UniProt P42338); test: Human PI3K beta enzyme assay (HTRF); conditions: concentration not given, b1387 states 1.1 μM for PI3K α and β; for inhibition at 1.1 µM: read-out: p110 beta Percent Inhibition
T1 construct: His (N); host or cells: SF9 insect cells (baculovirus)
How it was run: (§1)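 Compounds were mixed with 25 uM ATP, then with 3.5 uM di-C8 PI(4,5)P2 and His-tagged PI3K isoform (β 5.25 nM, δ 0.75 nM, γ 5 nM) at pH 7.00. After 30 min at room temperature, EDTA stopped the reaction and PIP3 was measured by HTRF over 1 h.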

[2] = molecular target: T2, Human PI3K alpha (Homo sapiens, UniProt P42336); test: Human PI3K alpha enzyme assay (HTRF); conditions: concentration not given, b1387 states 1.1 μM for PI3K α and β; for inhibition at 1.1 µM: read-out: p110 alpha Percent Inhibition
T2 construct: His (N); host or cells: SF9 insect cells (baculovirus)

[3] = molecular target: T3, Human PI3K delta (Homo sapiens, UniProt O00329); test: Human PI3K delta enzyme assay (HTRF); conditions: concentration not given, b1389 states 1.0 μM for PI3K δ and γ; for inhibition at 1 µM: read-out: p110 delta Percent Inhibition
T3 construct: His (N); host or cells: SF9 insect cells (baculovirus)
How it was run: as §1

[4] = molecular target: T4, Human PI3K gamma (Homo sapiens, UniProt P48736); test: Human PI3K gamma enzyme assay (HTRF); conditions: concentration not given, b1389 states 1.0 μM for PI3K δ and γ; for inhibition at 1 µM: read-out: p110 gamma Percent Inhibition
T4 construct: His (N); host or cells: SF9 insect cells (baculovirus)
How it was run: as §1

T2 sequence (P42336 whole entry): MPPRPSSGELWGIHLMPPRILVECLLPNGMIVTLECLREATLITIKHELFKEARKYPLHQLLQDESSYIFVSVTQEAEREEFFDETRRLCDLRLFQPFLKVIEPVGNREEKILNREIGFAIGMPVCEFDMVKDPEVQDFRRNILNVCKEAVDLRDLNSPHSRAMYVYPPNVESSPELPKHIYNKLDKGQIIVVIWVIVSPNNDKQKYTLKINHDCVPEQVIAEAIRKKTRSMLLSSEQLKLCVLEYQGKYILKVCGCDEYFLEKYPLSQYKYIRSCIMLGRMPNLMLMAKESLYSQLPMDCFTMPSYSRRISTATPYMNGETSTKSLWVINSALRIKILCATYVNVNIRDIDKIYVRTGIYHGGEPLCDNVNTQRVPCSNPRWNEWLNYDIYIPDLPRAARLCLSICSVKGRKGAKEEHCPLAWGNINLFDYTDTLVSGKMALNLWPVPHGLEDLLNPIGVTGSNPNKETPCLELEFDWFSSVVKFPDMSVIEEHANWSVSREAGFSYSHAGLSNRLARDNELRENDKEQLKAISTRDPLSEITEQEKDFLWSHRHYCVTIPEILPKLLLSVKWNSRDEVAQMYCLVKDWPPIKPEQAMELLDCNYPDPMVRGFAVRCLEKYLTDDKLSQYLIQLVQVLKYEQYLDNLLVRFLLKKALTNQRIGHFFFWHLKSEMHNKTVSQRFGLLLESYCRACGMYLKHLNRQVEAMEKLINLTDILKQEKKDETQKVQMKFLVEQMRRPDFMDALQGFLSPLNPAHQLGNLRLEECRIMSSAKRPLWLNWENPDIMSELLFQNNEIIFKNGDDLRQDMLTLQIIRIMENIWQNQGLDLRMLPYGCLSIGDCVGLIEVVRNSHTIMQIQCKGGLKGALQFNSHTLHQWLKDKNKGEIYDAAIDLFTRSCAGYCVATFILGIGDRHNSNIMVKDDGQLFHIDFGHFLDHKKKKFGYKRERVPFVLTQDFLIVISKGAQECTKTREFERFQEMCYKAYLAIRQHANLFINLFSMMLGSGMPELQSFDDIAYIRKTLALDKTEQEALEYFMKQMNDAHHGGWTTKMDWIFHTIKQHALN
T2 sequence (P27986 whole entry partner): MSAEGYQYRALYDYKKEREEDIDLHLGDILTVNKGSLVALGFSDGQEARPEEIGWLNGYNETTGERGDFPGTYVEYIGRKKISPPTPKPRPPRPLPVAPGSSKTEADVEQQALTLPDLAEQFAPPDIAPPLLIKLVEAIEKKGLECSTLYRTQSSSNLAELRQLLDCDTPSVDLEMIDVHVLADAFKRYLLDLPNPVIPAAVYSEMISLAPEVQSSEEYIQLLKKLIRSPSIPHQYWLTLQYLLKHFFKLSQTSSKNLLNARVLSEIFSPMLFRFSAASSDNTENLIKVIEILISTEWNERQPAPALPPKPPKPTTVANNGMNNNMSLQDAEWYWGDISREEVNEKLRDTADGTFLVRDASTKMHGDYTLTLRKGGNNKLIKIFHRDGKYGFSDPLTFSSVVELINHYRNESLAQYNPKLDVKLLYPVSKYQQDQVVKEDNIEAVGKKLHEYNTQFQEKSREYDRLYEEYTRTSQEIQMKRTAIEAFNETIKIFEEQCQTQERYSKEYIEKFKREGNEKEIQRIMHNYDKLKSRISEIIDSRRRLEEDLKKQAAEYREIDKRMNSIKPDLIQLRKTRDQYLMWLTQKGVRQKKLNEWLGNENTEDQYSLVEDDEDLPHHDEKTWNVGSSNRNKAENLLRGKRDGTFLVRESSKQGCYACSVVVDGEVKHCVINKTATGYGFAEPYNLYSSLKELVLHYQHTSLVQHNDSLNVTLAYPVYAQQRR
T3 sequence (O00329 whole entry): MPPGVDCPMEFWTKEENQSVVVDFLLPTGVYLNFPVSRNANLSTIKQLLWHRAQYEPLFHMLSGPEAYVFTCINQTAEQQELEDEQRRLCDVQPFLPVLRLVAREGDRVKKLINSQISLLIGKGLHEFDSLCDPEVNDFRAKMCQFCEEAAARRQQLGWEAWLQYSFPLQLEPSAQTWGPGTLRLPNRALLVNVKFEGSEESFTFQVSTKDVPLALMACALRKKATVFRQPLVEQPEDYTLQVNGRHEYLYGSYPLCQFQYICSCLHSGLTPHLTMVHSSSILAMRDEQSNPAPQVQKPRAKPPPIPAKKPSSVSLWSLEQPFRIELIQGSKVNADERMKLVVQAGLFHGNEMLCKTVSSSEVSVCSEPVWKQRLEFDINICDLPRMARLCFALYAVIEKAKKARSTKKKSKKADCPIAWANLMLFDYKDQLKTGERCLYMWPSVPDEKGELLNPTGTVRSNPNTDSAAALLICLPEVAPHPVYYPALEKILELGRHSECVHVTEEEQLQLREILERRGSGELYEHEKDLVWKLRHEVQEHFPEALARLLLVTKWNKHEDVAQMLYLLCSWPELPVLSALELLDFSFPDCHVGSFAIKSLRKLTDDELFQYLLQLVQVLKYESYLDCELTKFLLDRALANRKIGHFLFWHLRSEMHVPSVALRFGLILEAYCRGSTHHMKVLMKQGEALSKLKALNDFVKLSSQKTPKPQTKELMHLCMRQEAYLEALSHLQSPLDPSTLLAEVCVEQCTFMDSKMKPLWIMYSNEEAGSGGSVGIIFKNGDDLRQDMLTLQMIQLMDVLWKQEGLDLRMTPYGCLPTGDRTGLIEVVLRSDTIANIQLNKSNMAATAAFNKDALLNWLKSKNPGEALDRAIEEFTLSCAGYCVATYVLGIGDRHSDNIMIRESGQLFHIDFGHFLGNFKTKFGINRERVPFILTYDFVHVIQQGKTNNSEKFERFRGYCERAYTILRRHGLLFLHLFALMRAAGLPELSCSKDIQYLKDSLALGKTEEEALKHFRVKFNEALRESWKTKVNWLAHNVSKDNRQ
T3 sequence (P27986 whole entry partner): as the sequence (P27986 whole entry partner) above
T1 sequence (P42338 whole entry): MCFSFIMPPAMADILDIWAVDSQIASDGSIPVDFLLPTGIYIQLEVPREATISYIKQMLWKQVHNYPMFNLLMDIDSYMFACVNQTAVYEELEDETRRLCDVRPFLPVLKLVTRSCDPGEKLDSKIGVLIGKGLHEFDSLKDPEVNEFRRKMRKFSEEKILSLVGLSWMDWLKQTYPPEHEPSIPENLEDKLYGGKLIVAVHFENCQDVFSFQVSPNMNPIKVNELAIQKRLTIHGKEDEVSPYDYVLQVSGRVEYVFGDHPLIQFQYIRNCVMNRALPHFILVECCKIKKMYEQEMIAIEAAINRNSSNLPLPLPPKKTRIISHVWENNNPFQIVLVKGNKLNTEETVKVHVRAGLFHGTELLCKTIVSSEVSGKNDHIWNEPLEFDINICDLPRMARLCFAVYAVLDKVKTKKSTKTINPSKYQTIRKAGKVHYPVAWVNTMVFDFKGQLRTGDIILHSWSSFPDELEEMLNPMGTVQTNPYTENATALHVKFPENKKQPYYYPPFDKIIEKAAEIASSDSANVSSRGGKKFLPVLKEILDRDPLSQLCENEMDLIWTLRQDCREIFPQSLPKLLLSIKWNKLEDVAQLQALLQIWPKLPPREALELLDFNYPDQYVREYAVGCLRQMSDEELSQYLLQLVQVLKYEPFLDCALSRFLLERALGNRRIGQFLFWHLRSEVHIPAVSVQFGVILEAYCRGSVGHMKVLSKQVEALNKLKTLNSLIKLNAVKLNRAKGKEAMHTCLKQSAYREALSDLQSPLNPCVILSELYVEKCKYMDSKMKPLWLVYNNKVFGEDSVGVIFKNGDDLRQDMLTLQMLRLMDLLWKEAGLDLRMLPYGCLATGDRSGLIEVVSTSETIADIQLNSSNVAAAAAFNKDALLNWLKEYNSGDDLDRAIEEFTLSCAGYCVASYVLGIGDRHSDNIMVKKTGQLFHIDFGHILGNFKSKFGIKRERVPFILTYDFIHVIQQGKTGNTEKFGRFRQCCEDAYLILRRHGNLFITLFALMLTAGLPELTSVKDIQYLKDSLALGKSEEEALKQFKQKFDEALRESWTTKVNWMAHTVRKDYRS
T1 sequence (P27986 whole entry partner): as the sequence (P27986 whole entry partner) above
T4 sequence (P48736 whole entry): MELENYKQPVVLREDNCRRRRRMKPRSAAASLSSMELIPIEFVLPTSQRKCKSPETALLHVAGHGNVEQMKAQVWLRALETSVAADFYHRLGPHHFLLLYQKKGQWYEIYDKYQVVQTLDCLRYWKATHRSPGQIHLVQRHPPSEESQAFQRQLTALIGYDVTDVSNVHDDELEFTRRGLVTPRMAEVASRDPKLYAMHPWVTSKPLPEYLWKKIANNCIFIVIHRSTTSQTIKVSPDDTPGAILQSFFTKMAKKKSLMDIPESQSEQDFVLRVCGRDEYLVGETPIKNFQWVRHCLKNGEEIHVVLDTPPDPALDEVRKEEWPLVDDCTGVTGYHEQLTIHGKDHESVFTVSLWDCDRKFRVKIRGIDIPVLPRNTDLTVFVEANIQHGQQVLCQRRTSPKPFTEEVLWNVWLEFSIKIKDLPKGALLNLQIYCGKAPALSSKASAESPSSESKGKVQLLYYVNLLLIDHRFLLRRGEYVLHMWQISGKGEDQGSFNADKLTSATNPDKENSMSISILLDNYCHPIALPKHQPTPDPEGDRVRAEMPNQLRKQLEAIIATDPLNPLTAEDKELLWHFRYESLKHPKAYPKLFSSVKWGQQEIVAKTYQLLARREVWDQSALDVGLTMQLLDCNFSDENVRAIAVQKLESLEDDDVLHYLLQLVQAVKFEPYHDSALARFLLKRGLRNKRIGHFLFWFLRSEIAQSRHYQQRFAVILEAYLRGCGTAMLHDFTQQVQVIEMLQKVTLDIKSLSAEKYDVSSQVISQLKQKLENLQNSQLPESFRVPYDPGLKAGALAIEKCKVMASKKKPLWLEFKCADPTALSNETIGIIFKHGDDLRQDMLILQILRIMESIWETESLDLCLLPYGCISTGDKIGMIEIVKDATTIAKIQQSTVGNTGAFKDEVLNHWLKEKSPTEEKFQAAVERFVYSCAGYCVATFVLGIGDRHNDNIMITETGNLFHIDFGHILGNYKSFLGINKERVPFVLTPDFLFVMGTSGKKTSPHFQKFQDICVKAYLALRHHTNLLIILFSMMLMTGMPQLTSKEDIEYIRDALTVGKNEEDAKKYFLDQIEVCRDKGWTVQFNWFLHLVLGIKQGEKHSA

Structure (SMILES) | inhibition at 1.1 µM [1] [%] | inhibition at 1.1 µM [2] [%] | inhibition at 1 µM [3] [%] | inhibition at 1 µM [4] [%] | p110 alpha Percent Inhibition [2] [%] | p110 beta Percent Inhibition [1] [%] | p110 delta Percent Inhibition [3] [%] | p110 gamma Percent Inhibition [4] [%]
CC(C)(C)[S+]([O-])NC(c1ccc2ccccc2c1)c1c(C(=O)O)sc(N2CCOCC2)c1C#N (stereo not drawn) [Compound 323] | 61 | 66 | 97 | 46 | – | – | – | –
N#Cc1ccc2ccc(Cc3nc(N4CCOCC4)sc3C(=O)O)cc2c1 [Compound 325] | 89 | 17 | 89 | 22 | – | – | – | –
CC(c1ccc2cc(F)ccc2c1)c1c(C(=O)O)sc(N2CCOCC2)c1C#N (stereo not drawn) [Compound 326] | 108 | – | 96 | 56 | 79 | – | – | –
N#Cc1c(N2CCOCC2)sc(C(N)=O)c1Cc1ccc2ccccc2c1 [Compound 327, 4-cyano-5-(morpholin-4-yl)-3-(2-naphthylmethyl)thiophene-2-carboxamide] | 109 | 34 | 109 | 22 | – | – | – | –
O=C(O)c1sc(N2CCOCC2)nc1Cc1ccc2cc[nH]c2c1 [Compound 328] | 98 | 11 | 83 | 48 | – | – | – | –
NS(=O)(=O)c1sc(N2CCOCC2)nc1Cc1ccc2ccccc2c1 [Compound 329, 2-morpholino-4-(naphthalen-2-ylmethyl)thiazole-5-sulfonamide] | 112 | 39 | 80 | 29 | – | – | – | –
Cn1c(Cc2c(C(=O)O)sc(N3CCOCC3)c2C#N)cc2ccccc21 [Compound 330] | 109 | 85 | 106 | 61 | – | – | – | –
CN(C)CCC(c1ccc(Cl)c(Cl)c1)c1c(C(=O)O)sc(N2CCOCC2)c1C#N (stereo not drawn) [Compound 331, 4-cyano-3-[1-(3,4-dichlorophenyl)-3-(dimethylamino)propyl]-5-(morpholin-4-yl)thiophene-2-carboxylic acid] | 105 | 37 | 107 | 51 | – | – | – | –
CC(c1ccc(Cl)c(Cl)c1)c1nc(N2CCOCC2)sc1C(=O)O (stereo not drawn) [Compound 332] | 77 | 11 | 91 | 27 | – | – | – | –
CC(c1ccc2ccccc2c1)c1c(C(=O)O)sc(N2CCOCC2)c1C#N (stereo not drawn) [Compound 333] | 95 | 63 | 74 | 55 | – | – | – | –
NC(=O)c1sc(N2CCOCC2)nc1Cc1ccc2ccccc2c1 [Compound 334] | 103 | 21 | 101 | 12 | – | – | – | –
COc1ccc2ccc(Cc3nc(N4CCOCC4)sc3C(=O)O)cc2c1 [Compound 335] | 111 | 54 | 107 | 31 | – | – | – | –
CN(C)C(c1ccc(Cl)c(Cl)c1)c1c(C(=O)O)sc(N2CCOCC2)c1C#N (stereo not drawn) [Compound 336] | – | – | – | – | 16 | 90 | 49 | 10
O=C(O)c1sc(N2CCOCC2)nc1Cc1cc(F)c2ccccc2c1 [Compound 338] | 110 | 67 | 109 | 73 | – | – | – | –
O=C(O)c1sc(N2CCOCC2)nc1Cc1ccc2c(F)cccc2c1 [Compound 340] | 113 | 48 | 104 | 59 | – | – | – | –
O=C(O)c1sc(N2CCOCC2)nc1Cc1cc2ccccc2o1 [Compound 341] | 110 | 30 | 98 | 30 | – | – | – | –
CC(C)(C)[S+]([O-])NC(c1ccc(Cl)c(Cl)c1)c1c(C(=O)O)sc(N2CCOCC2)c1C#N (stereo not drawn) [Compound 342] | 80 | 34 | 97 | 12 | – | – | – | –
O=C(O)c1sc(N2CCOCC2)nc1Cc1ccc2ccncc2c1 [Compound 344] | 103 | 24 | 102 | 59 | – | – | – | –

Structure (SMILES) | inhibition at 1.1 µM [1] [%] | inhibition at 1.1 µM [2] [%] | inhibition at 1 µM [3] [%] | inhibition at 1 µM [4] [%] | p110 alpha Percent Inhibition [2] [%] | p110 beta Percent Inhibition [1] [%] | p110 delta Percent Inhibition [3] [%] | p110 gamma Percent Inhibition [4] [%]
CC(c1ccc2ccccc2c1)c1nc(N2CCOCC2)sc1C(=O)O (stereo not drawn) [Compound 346] | 98 | 21 | 98 | 23 | – | – | – | –
N#Cc1c(N2CCOCC2)sc(C(=O)O)c1C(CCO)c1ccc(Cl)c(Cl)c1 (stereo not drawn) [Compound 347, 4-cyano-3-[1-(3,4-dichlorophenyl)-3-hydroxypropyl]-5-(morpholin-4-yl)thiophene-2-carboxylic acid] | 102 | 71 | 111 | 60 | – | – | – | –
O=C(O)Cc1sc(N2CCOCC2)nc1Cc1ccc(Cl)c(Cl)c1 [Compound 348, 2-(4-(3,4-dichlorobenzyl)-2-morpholinothiazol-5-yl)acetic acid] | 63 | 4 | 56 | 4 | – | – | – | –
Clc1ccc(Cc2nc(N3CCOCC3)sc2Cc2nnn[nH]2)cc1Cl [Compound 350, 4-(5-((1H-tetrazol-5-yl)methyl)-4-(3,4-dichlorobenzyl)thiazol-2-yl)morpholine] | 58 | 6 | 41 | 3 | – | – | – | –
CN(C)C(c1ccc(Cl)cc1)c1c(C(=O)O)sc(N2CCOCC2)c1C#N (stereo not drawn) [Compound 351] | 82 | 15 | 79 | 46 | – | – | – | –
CS(=O)(=O)NC(=O)c1sc(N2CCOCC2)c(C#N)c1Cc1ccc(Cl)c(Cl)c1 [Compound 352, 4-cyano-3-(3,4-dichlorobenzyl)-N-(methylsulfonyl)-5-morpholinothiophene-2-carboxamide] | 85 | 18 | 84 | 14 | – | – | – | –
CC(=O)NC(c1ccc(Cl)cc1)c1c(C(=O)O)sc(N2CCOCC2)c1C#N (stereo not drawn) [Compound 353] | 87 | 19 | 80 | 15 | – | – | – | –
COC(=O)NC(c1ccc2ccccc2c1)c1c(C(=O)O)sc(N2CCOCC2)c1C#N (stereo not drawn) [Compound 354] | 111 | 89 | 99 | 40 | – | – | – | –
C=CCC(c1ccc(Cl)c(Cl)c1)c1c(C(=O)O)sc(N2CCOCC2)c1C#N (stereo not drawn) [Compound 355, 4-cyano-3-[1-(3,4-dichlorophenyl)but-3-en-1-yl]-5-(morpholin-4-yl)thiophene-2-carboxylic acid] | 100 | 44 | 105 | 53 | – | – | – | –
c1ccc2cc(Cc3cc(N4CCOCC4)sc3-c3nnn[nH]3)ccc2c1 [Compound 356] | 95 | 11 | 72 | 23 | – | – | – | –
N#Cc1c(N2CCOCC2)sc(C(=O)O)c1C(N)c1ccc2ccccc2c1 (stereo not drawn) [Compound 357] | 110 | 89 | 110 | 79 | – | – | – | –
N#Cc1c(N2CCOCC2)sc(C(=O)O)c1C(F)(F)c1ccc(Cl)cc1 [Compound 358] | 43 | 13 | 51 | 32 | – | – | – | –
N#Cc1c(N2CCOCC2)sc(C(=O)O)c1Cc1cc2ccc(Cl)cc2[nH]1 [Compound 359] | 109 | 90 | 102 | 64 | – | – | – | –
c1ccc2cc(Cc3nc(N4CCOCC4)sc3-c3nnn[nH]3)ccc2c1 [Compound 360, 4-[4-(2-naphthylmethyl)-5-(1H-tetrazol-5-yl)-1,3-thiazol-2-yl]morpholine] | – | – | – | – | 30 | 106 | 110 | 49
COc1ccc2ccc(Cc3c(C(=O)O)sc(N4CCOCC4)c3C#N)cc2c1 [Compound 361] | 115 | 104 | 111 | 60 | – | – | – | –
CN(C)C(c1ccc(Cl)c(Cl)c1)c1c(C(=O)O)sc(N2CCOCC2)c1C#N (stereo not drawn) [Compound 362, 4-cyano-3-[(3,4-dichlorophenyl)(dimethylamino)methyl]-5-(morpholin-4-yl)thiophene-2-carboxylic acid] | – | – | – | – | 80 | 116 | 104 | 44
N#Cc1c(N2CCOCC2)sc(C(=O)O)c1C(CCO)c1ccc2ccccc2c1 (stereo not drawn) [Compound 363] | – | – | – | – | 99 | 113 | 106 | 65
N#Cc1c(N2CCOCC2)sc(C(=O)O)c1C(F)c1ccc2ccccc2c1 (stereo not drawn) [Compound 364] | – | – | – | – | 88 | 109 | 101 | 56
